Consider five compounds from US7691925B2, “Pressure-sensitive adhesive composition, pressure-sensitive adhesive sheets and surface protecting film” (priority 2004, dated 2010).

The conditions of the series: 1 part ionic liquid in 9 parts toluene, 25° C., naked eyes. On the procedure: “Toluene-soluble” in the present invention means that an ionic liquid is soluble in toluene, more specifically, refers to such nature that an ionic liquid is uniformly dissolved in toluene upon preparation of a 10 weight % solution of an ionic-liquid in toluene.
9 Parts by weight of toluene (guaranteed grade manufactured by Wako Pure Chemical Industries, Ltd.) was added to 1 part by weight of an ionic liquid, and this was mixed and stirred under a normal temperature (25° C.) for 10 minutes, and allowed to stand for 30 minutes.
Thereafter, solubility was assessed with naked eyes, and toluene-solubility was determined. In assessment criteria, the state where no separated substance is observed, and a substance is uniformly dissolved was assessed as “soluble” (existence of toluene-solubility).
Take `CCCCC[N+](CCCCC)(CCCCC)CCCCC.O=S(=O)([O-])C(F)(F)F` [ionic liquid (1), tetra-n-pentylammonium trifluoromethanesulfonate]: the Toluene-solubility result is “possession of toluene-solubility was confirmed”.

Regarding `CCCCCC[N+](CCCCCC)(CCCCCC)CCCCCC.O=S(=O)([O-])C(F)(F)F` [ionic liquid (2), tetra-n-hexylammonium trifluoromethanesulfonate], the Toluene-solubility result was “possession of toluene-solubility was confirmed”.

`CCCCCCC[N+](CCCCCCC)(CCCCCCC)CCCCCCC.O=S(=O)([O-])C(F)(F)F` [ionic liquid (3), tetra-n-heptylammonium trifluoromethanesulfonate]: the Toluene-solubility result is reported as “possession of toluene-solubility was confirmed”.

As to `CCCCCCCC[P+](CCCCCCCC)(CCCCCCCC)CCCCCCCC.O=S(=O)([O-])C(F)(F)F` [ionic liquid (4), tetra-n-octylphosphonium trifluoromethanesulfonate], the Toluene-solubility result is reported as “possession of toluene-solubility was confirmed”.

As for `CCCC[n+]1cccc(C)c1.O=S(=O)([N-]S(=O)(=O)C(F)(F)F)C(F)(F)F` [ionic liquid (6), 1-butyl-3-methylpyridinium bis(trifluoromethanesulfon)imide, reference compound], the Toluene-solubility result was “possession of toluene-solubility was not confirmed”.
